Measured values as given in patent publication US11466044B2 (WAYNE STATE UNIVERSITY, priority 2017, dated 2022).
Values after ≈ are worked out from the molar mass of the structure shown. Structures can show the parent of a compound that is named as a salt. Where two headings read alike, the source gives them in different places.

Experiments:
P aeruginosa = assay: MIC by broth microdilution, P aeruginosa isolates; type: cell-based, Pseudomonas aeruginosa; conditions: for MIC50: Pseudomonas aeruginosa; for MIC: strain AG220 Pseudomonas aeruginosa ATCC27853, read-out: MIC AG220 P. aerugin
MRSA = assay: MIC by broth microdilution, MRSA isolates; type: cell-based; conditions: for MIC50: Staphylococcus aureus, MRSA
[1] = tested on: mitochondrial ribosome (human chimeric); type: biochemical; conditions: mitochondrial; Table 3 (Example 2); read-out: IC50 Mit
Source text: (§1) The antiribosomal activity of these compounds was investigated with cell-free translation assays using both wild type bacterial ribosomes and hybrid ribosomes carrying eukaryotic decoding A sites enabling the prediction of selectivity.

[2] = tested on: cytosolic ribosome (human chimeric); type: biochemical; conditions: cytosolic; Table 3 (Example 2); read-out: IC50 Cyt
Source text: as §1

[3] = tested on: Klebsiella pneumonia AG215; assay: MIC by broth microdilution, Klebsiella pneumonia; type: cell-based; conditions: Klebsiella pneumoniae; strain AG215 Klebsiella pneumonia; read-out: MIC AG215 K. pneumon
M. smegmatis SZ380 = assay: MIC by broth microdilution, M. smegmatis; conditions: for MIC: Mycolicibacterium smegmatis, SZ380, read-out: MIC SZ380 M. smegmatis, strain SZ380 Mycobacterium smegmatis
[4] = tested on: E coli carrying specific resistance determinants; assay: MIC by broth microdilution, E coli carrying specific resistance determinants; type: cell-based; conditions: Escherichia coli
E coli wild type = assay: MIC by broth microdilution, wild type E coli; type: cell-based; conditions: for MIC / MIC50: Escherichia coli
[5] = tested on: wild type bacterial ribosomes; assay: in-vitro translation assay, bacterial ribosomes; type: biochemical; conditions: bacterial ribosome; Table 3 (Example 2); read-out: IC50 Bac
Source text: as §1

[6] = tested on: Acinetobacter baumannii pittii AG225; assay: MIC by broth microdilution, Acinetobacter baumannii; type: cell-based; conditions: strain AG225 Acinetobacter baumannii pittii
[7] = tested on: Enterobacter cloacae AG290; assay: MIC by broth microdilution, Enterobacter cloacae; type: cell-based; conditions: strain AG290 Enterobacter cloacae; read-out: MIC AG290 E. cloacae
[8] = strain AG33, Table 1 (Example 2), read-out: MIC50 P aeruginosa AG33
[9] = strain AG86, Table 1 (Example 2), read-out: MIC50 P aeruginosa AG86
[10] = read-out: MIC50 E coli AG036 ANT(4′,4″), AG036 ANT(4′,4″), Table 2B (Example 2)
[11] = read-out: MIC50 E coli AG037 APH(3′)-III, AG037 APH(3′)-III, Table 2B (Example 2)
[12] = read-out: MIC50 E coli AG103 armA, AG103 armA, Table 2B (Example 2)
[13] = read-out: MIC50 E coli pH421 APH(3′)-I, pH421 APH(3′)-I, Table 2B (Example 2)
[14] = read-out: MIC50 E coli pH422 APH(3′)-II, pH422 APH(3′)-II, Table 2B (Example 2)
[15] = read-out: MIC50 E coli pH423 APH(3)-VI, pH423 APH(3)-VI, Table 2B (Example 2)
[16] = read-out: MIC50 E coli pH432 ANT(4′), pH432 ANT(4′), Table 2B (Example 2)
[17] = ATCC25922, strain AG212 E. coli (ATCC25922), read-out: MIC AG212 E. coli

CC1CC(N)C2O[C@H](O[C@@H]3C(N)C[C@@H](N)C(O)[C@H]3O[C@@H]3O[C@H](CO)[C@H](O[C@H]4O[C@@H](CN)[C@@H](O)C(O)C4N)C3O)C(N)[C@@H](O)[C@@H]2O1 (stereo partly drawn) [Compound 139, 4-O-(2′,6′-Diamino-4′,8′-anhydro-2′,6′,7′,9′-tetradeoxy-D-threo-α-D-gluco-nonapyranosyl)-5-O-(β-paramobiosyl)-2-deoxystreptamine.6AcOH]
MIC50 (P aeruginosa; [8]): 128 µg/mL (≈ 196 µM)
MIC50 (P aeruginosa; [9]): 128 µg/mL (≈ 196 µM)
MIC50 P aeruginosa AG31 (P aeruginosa; strain AG31, Table 1 (Example 2)): 32 µg/mL (≈ 48.9 µM)
MIC50 P aeruginosa AG32 (P aeruginosa; strain AG32, Table 1 (Example 2)): 32 µg/mL (≈ 48.9 µM)
MIC (P aeruginosa): 16 to 32 µg/mL (≈ 24.4 to 48.9 µM)
MIC50 MRSA AG38 (MRSA; strain AG38, Table 1 (Example 2)): 4 µg/mL (≈ 6.11 µM)
MIC50 MRSA AG39 (MRSA; strain AG39, Table 1 (Example 2)): 4 µg/mL (≈ 6.11 µM)
MIC50 MRSA AG42 (MRSA; strain AG42, Table 1 (Example 2)): 2 µg/mL (≈ 3.05 µM)
MIC50 MRSA AG44 (MRSA; strain AG44, Table 1 (Example 2)): 2 µg/mL (≈ 3.05 µM)
IC50 [1]: 2.3 µM
IC50 [2]: 19 µM
MIC [3]: 0.5 to 1 µg/mL (≈ 0.764 to 1.53 µM)
MIC SZ380 M. smegmatis (M. smegmatis SZ380; strain SZ380 Mycobacterium smegmatis): 1 to 2 µg/mL
MIC50 ([4]; read-out: MIC50 E coli AG07 AAC(3), AG07 AAC(3), Table 2A (Example 2)): 4 µg/mL (≈ 6.11 µM)
MIC50 ([4]; read-out: MIC50 E coli AG09 AAC(6′), AG09 AAC(6′), Table 2A (Example 2)): 2 µg/mL (≈ 3.05 µM)
MIC50 ([4]; read-out: MIC50 E coli AG036 ANT(4′,4″), AG036 ANT(4′,4″), Table 2A (Example 2)): 2 µg/mL (≈ 3.05 µM)
MIC50 [4, 10]: 0.25 µg/mL (≈ 0.382 µM)
MIC50 [4, 11]: 8 to 16 µg/mL (≈ 12.2 to 24.4 µM)
MIC50 ([4]; read-out: MIC50 E coli AG037 APH(3′,5″), AG037 APH(3′,5″), Table 2A (Example 2)): 32 to 64 µg/mL (≈ 48.9 to 97.8 µM)
MIC50 ([4]; read-out: MIC50 E coli AG103 ArmA, AG103 ArmA, Table 2A (Example 2)): 2 µg/mL (≈ 3.05 µM)
MIC50 [4, 12]: 0.5 µg/mL (≈ 0.764 µM)
MIC50 ([4]; read-out: MIC50 E coli AG105 AAC(2′), AG105 AAC(2′), Table 2A (Example 2)): 2 to 4 µg/mL (≈ 3.05 to 6.11 µM)
MIC50 ([4]; read-out: MIC50 E coli pH414 AAC(6′)-I, pH414 AAC(6′)-I, Table 2B (Example 2)): 1 µg/mL (≈ 1.53 µM)
MIC50 ([4]; read-out: MIC50 E coli pH415 AAC(6′)-II, pH415 AAC(6′)-II, Table 2B (Example 2)): 1 µg/mL (≈ 1.53 µM)
MIC50 [4, 13]: > 32 µg/mL
MIC50 [4, 14]: 8 µg/mL (≈ 12.2 µM)
MIC50 [4, 15]: 1 to 2 µg/mL (≈ 1.53 to 3.05 µM)
MIC50 [4, 16]: 1 µg/mL (≈ 1.53 µM)
MIC ([4]; read-out: MIC AAC(6′)): 1 µg/mL (≈ 1.53 µM)
MIC ([4]; read-out: MIC ANT(4′)): 0.25 µg/mL (≈ 0.382 µM)
MIC ([4]; read-out: MIC APH(3′)-II): 8 µg/mL (≈ 12.2 µM)
MIC ([4]; read-out: MIC APH(3′)-VI): 1 to 2 µg/mL (≈ 1.53 to 3.05 µM)
MIC50 E coli BM13 (AG06) wt (E coli wild type; BM13 (AG06) wt, Table 2A (Example 2)): 1 to 2 µg/mL
MIC (E coli wild type; [17]): 1 µg/mL (≈ 1.53 µM)
MIC WT (E coli wild type; WT, Table 3 (Example 2)): 0.5 to 1 µg/mL
MIC50 E coli pH430 WT (E coli wild type; pH430 WT, Table 2B (Example 2)): 0.5-1 μg/ml
MIC50 E coli AG01 (E coli wild type; strain AG01, Table 1 (Example 2)): 2 µg/mL (≈ 3.05 µM)
MIC50 E coli AG03 (E coli wild type; strain AG03, Table 1 (Example 2)): 2 µg/mL (≈ 3.05 µM)
MIC50 E coli AG55 (E coli wild type; strain AG55, Table 1 (Example 2)): 2 µg/mL (≈ 3.05 µM)
IC50 [5]: 0.12 µM
MIC [6]: 4 µg/mL (≈ 6.11 µM)
MIC [7]: 1 µg/mL (≈ 1.53 µM)

CC(=O)NC[C@H]1O[C@@H](O[C@@H]2C(O)[C@H](N)CC(N)[C@H]2O[C@H]2OC(CO)[C@@H](O)[C@H](O)C2N)C(O)[C@H]1O[C@H]1O[C@@H](CN)[C@@H](O)C(O)C1N (some centres unmarked) [Compound 165, 5″-Acetamido-5″-deoxy-paromomycin-acetate salt]
MIC50 (P aeruginosa; strain AG31, Table 1 (Example 1), read-out: MIC50 P aeruginosa AG31): > 128 µg/mL
MIC50 (P aeruginosa; strain AG32, Table 1 (Example 1), read-out: MIC50 P aeruginosa AG32): > 128 µg/mL
MIC50 (P aeruginosa; strain AG33, Table 1 (Example 1), read-out: MIC50 P aeruginosa AG33): > 128 µg/mL
MIC50 (P aeruginosa; strain AG86, Table 1 (Example 1), read-out: MIC50 P aeruginosa AG86): > 128 µg/mL
MIC (P aeruginosa): > 64 µg/mL
MIC50 (MRSA; strain AG38, Table 1 (Example 1), read-out: MIC50 MRSA AG38): 16 to 32 µg/mL
MIC50 (MRSA; strain AG39, Table 1 (Example 1), read-out: MIC50 MRSA AG39): > 128 µg/mL
MIC50 (MRSA; strain AG42, Table 1 (Example 1), read-out: MIC50 MRSA AG42): > 128 µg/mL
MIC50 (MRSA; strain AG44, Table 1 (Example 1), read-out: MIC50 MRSA AG44): 16 µg/mL
MIC [3]: 8 µg/mL
MIC (M. smegmatis SZ380): 32 µg/mL
MIC ([4]; read-out: MIC AG037 E. coli APH(3′)-III): > 64 µg/mL
MIC ([4]; read-out: MIC pH421 E. coli APH(3′)-I): > 64 µg/mL
MIC ([4]; read-out: MIC pH422 E. coli APH(3′)-II): > 64 µg/mL
MIC ([4]; read-out: MIC pH423 E. coli APH(3′)-VI): > 64 µg/mL
MIC (E coli wild type; AG006 wt, Table 2 (Example 1), read-out: MIC E coli AG006 wt): 4 to 8 µg/mL
MIC (E coli wild type; [17]): 16 µg/mL
MIC (E coli wild type; clinical isolate AG160 WT, Table 2 (Example 4), read-out: MIC AG160 E. coli WT): 8 µg/mL
MIC (E coli wild type; engineered strain pH430 WT, Table 2 (Example 4), read-out: MIC pH430 E. coli WT): 8 to 16 µg/mL
MIC50 (E coli wild type; strain AG01, Table 1 (Example 1), read-out: MIC50 E coli AG01): 64 µg/mL
MIC50 (E coli wild type; strain AG03, Table 1 (Example 1), read-out: MIC50 E coli AG03): 32 to 64 µg/mL
MIC50 (E coli wild type; strain AG55, Table 1 (Example 1), read-out: MIC50 E coli AG55): 32 µg/mL
MIC [6]: 8 to 16 µg/mL
MIC [7]: 8 µg/mL

CC(C)(O)C1O[C@H](O[C@@H]2C(N)C[C@@H](N)C(O)[C@H]2O[C@@H]2O[C@H](CO)[C@H](O[C@H]3O[C@@H](CN)[C@@H](O)C(O)C3N)C2O)C(N)[C@@H](O)[C@@H]1O (some centres unmarked) [Compound 159]
MIC50 (P aeruginosa; strain AG31, Table 1 (Example 2), read-out: MIC50 P aeruginosa AG31): > 128 µg/mL
MIC50 (P aeruginosa; strain AG32, Table 1 (Example 2), read-out: MIC50 P aeruginosa AG32): > 128 µg/mL
MIC50 (P aeruginosa; [8]): > 128 µg/mL
MIC50 (P aeruginosa; [9]): > 128 µg/mL
MIC (P aeruginosa): > 64 µg/mL
MIC50 (MRSA; strain AG38, Table 1 (Example 2), read-out: MIC50 MRSA AG38): 8 to 16 µg/mL (≈ 12.4 to 24.9 µM)
MIC50 (MRSA; strain AG39, Table 1 (Example 2), read-out: MIC50 MRSA AG39): > 128 µg/mL
MIC50 (MRSA; strain AG42, Table 1 (Example 2), read-out: MIC50 MRSA AG42): > 128 µg/mL
MIC50 (MRSA; strain AG44, Table 1 (Example 2), read-out: MIC50 MRSA AG44): 4 to 8 µg/mL (≈ 6.21 to 12.4 µM)
MIC [3]: 1 to 2 µg/mL (≈ 1.55 to 3.11 µM)
MIC (M. smegmatis SZ380): 2 µg/mL (≈ 3.11 µM)
MIC50 [4, 10]: 16 to 32 µg/mL (≈ 24.9 to 49.7 µM)
MIC50 [4, 11]: > 64 µg/mL
MIC50 [4, 12]: 4 to 8 µg/mL (≈ 6.21 to 12.4 µM)
MIC50 [4, 13]: > 64 µg/mL
MIC50 [4, 14]: > 64 µg/mL
MIC50 [4, 15]: 8 µg/mL (≈ 12.4 µM)
MIC50 [4, 16]: 2 µg/mL (≈ 3.11 µM)
MIC (E coli wild type; [17]): 4 µg/mL (≈ 6.21 µM)
MIC50 (E coli wild type; BM13 (AG06) wt, Table 2A (Example 2), read-out: MIC50 E coli BM13 (AG06) wt): 4 µg/mL (≈ 6.21 µM)
MIC50 (E coli wild type; pH430 WT, Table 2B (Example 2), read-out: MIC50 E coli pH430 WT): 1 to 2 µg/mL (≈ 1.55 to 3.11 µM)
MIC50 (E coli wild type; strain AG01, Table 1 (Example 2), read-out: MIC50 E coli AG01): 8 µg/mL (≈ 12.4 µM)
MIC50 (E coli wild type; strain AG03, Table 1 (Example 2), read-out: MIC50 E coli AG03): 8 µg/mL (≈ 12.4 µM)
MIC50 (E coli wild type; strain AG55, Table 1 (Example 2), read-out: MIC50 E coli AG55): 8 µg/mL (≈ 12.4 µM)
MIC [6]: 4 µg/mL (≈ 6.21 µM)
MIC [7]: 2 µg/mL (≈ 3.11 µM)
